Measurements reported in US20100041746A1, “NOVEL USE OF ORGANIC COMPOUNDS” (priority 2006, published 2010).

Assays:
[1] = tested on: mCD36; assay: Gene expression in C2C12 muscle cells (TaqMan RT-PCR): mCD36; format: cell-based, mouse; settings: for mCD36 fold of induction compared to DMSO control: C2C12 cells, 24 h incubation, mRNA; for Effect on CD36 expression (in words): muscle cells
Procedure: (§1) C2C12 subclone cells were obtained from Dr. Grimaldi, University of Nice, France. C2C12PPd cells were seeded in 24-well-plates with 0.1×106 to 0.15×106 and kept at 37° C. in maintenance medium (DMEM #41965 adjusted to 10% FBS, 2 mM L-Glutamine, 1 mM sodium pyruvate, 100 IU/ml penicillin and 100 μg/ml streptomycin). At 90-95% confluency, cells were washed with 1×PBS and changed to differentiation medium (DMEM #41965 adjusted to 3% FBS, 2 mM Glutamine and 1 mM sodium pyruvate). After 4 days of differentiation, cells were washed with 1×PBS and treated in treatment medium (DMEM #41965 adjusted to 2% BSA, 2 mM Glutamine and 100 IU/ml penicillin and 100 μg/ml streptomycin) with the test compounds. DMSO contents were adjusted to 0.5% final concentration.
(§2) After 24 h incubation with tested compounds, cells were washed with 1×PBS, harvested with 300 μl RLT buffer (Qiagen RNeasy Mini Kit #74106) in QIAshredder (Qiagen 79656) and stored at −20° C.
(§3) Total RNA was extracted using the Qiagen RNeasy Mini Kit, including an in column DNase step (Qiagen #79254) according to the manufacture's protocol. RNA concentration was determined using RiboGreen® RNA quantification assay (Molecular Probes #R11490, Eugene, USA) according to the manufacturer's protocol. 200 ng of the total RNA were subject to first strand cDNA synthesis by reverse transcription using the Omniscript™ RT-kit (Qiagen #205113, Basel, CH) with 10 μM Random Primers (Promega #C1181) according to the manufacturer's instructions. The final volume was adjusted to 400 μl with DEPC-treated water (Ambion, Austin, Tex., USA) and stored at −20° C.
(§4) Quantitative real-time TaqMan RT-PCR, based on the multiplex method, was used to quantify the expression levels of selected genes. In the quantitative TaqMan RT-PCR, 5 μl of the diluted cDNA was added to 20 μl of the reaction mixture, consisting of 12.5 μl TaqMan 2× Master Mix (PE biosystems, Rotkreuz, CH), 300 nM PCR primers (forward and reverse), and 100 nM TaqMan probe for the gene of interest. The reference gene used was 18S rRNA, with primers and probes at 50 nM and 100 nM, respectively. Probes for the gene of interest were labeled with FAM on the 5′ end and with Tamra on the 3′ end. The 18S rRNA probe was labeled with VIC on the 5′ end and with Tamra on the 3′ end. Amplification was performed using an Abi-Prism 7700 Sequence Detector (PE Biosystems, Foster City, Calif., USA) in MicroAmp Optical 96-well reaction plates (PE Biosystems, Foster City, Calif., USA). The PCR amplification program consisted of 2 min at 50° C., 10 min at 95° C., and 40 cycles of 15 sec at 95° C. and 60 sec at 60° C. Threshold CT values were set at 0.05. The baseline start and stop values for the gene of interest were set at 3 and 15, respectively, and for the reference gene (18S rRNA) at 3 and 7, respectively. mRNA abundance was determined using the ΔCT method according to the manufacturer's protocol. Briefly, the ΔCT for the gene of interest was determined as the difference between the CT values for the reference gene and the gene of interest. Then, ΔΔCT was determined as the difference in dCT between the untreated control group and each of the treated groups. The fold induction for the gene of interest (i.e. the amount of mRNA for the gene of interest, normalized to an endogenous reference and relative to a calibrator) was determined as 2-ΔΔCT In graphs data is presented as a percentage.
(§5) Genes in involved in fatty acid β-oxidation and lipid metabolism were checked using real-time RT-PCR.

[2] = tested on: mFABP3; assay: Gene expression in C2C12 muscle cells (TaqMan RT-PCR): mFABP3; format: cell-based, mouse; settings: for mFABP3 fold of induction compared to DMSO control: C2C12 cells, 24 h incubation, mRNA; for Effect on FABP3 expression (in words): muscle cells
Procedure: as §1, §2, §3, §4, §5

[3] = tested on: mCPT1b; assay: Gene expression in C2C12 muscle cells (TaqMan RT-PCR): mCPT1b; format: cell-based, mouse; settings: for mCPT1b fold of induction compared to DMSO control: C2C12 cells, 24 h incubation, mRNA; for Effect on CPT1b expression (in words): muscle cells
Procedure: as §1, §2, §3, §4, §5

[4] = tested on: mACO1; assay: Gene expression in C2C12 muscle cells (TaqMan RT-PCR): mACO1; format: cell-based, mouse; settings: 24 h incubation, mRNA
Procedure: as §1, §2, §3, §4, §5

[5] = tested on: mLPL; assay: Gene expression in C2C12 muscle cells (TaqMan RT-PCR): mLPL; format: cell-based, mouse; settings: for mLPL fold of induction compared to DMSO control: C2C12 cells, 24 h incubation, mRNA; for Effect on LPL expression (in words): muscle cells
Procedure: as §1, §2, §3, §4, §5

[6] = tested on: mUCP2; assay: Gene expression in C2C12 muscle cells (TaqMan RT-PCR): mUCP2; format: cell-based, mouse; settings: 24 h incubation, mRNA
Procedure: as §1, §2, §3, §4, §5

[7] = tested on: mUCP3; assay: Gene expression in C2C12 muscle cells (TaqMan RT-PCR): mUCP3; format: cell-based, mouse; settings: for mUCP3 fold of induction compared to DMSO control: C2C12 cells, 24 h incubation, mRNA; for Effect on UCP3 expression (in words): muscle cells
Procedure: as §1, §2, §3, §4, §5

[8] = tested on: C57B1/6J mice; assay: Running performance, body composition and muscle weight of high-fat-diet mice supplemented for 9 weeks; format: in vivo, mouse
Procedure: 20 male C57B1/6J mice were obtained from Jackson Laboratory (Bar Harbor, Me., USA) at the age of 5 weeks. All mice were administered a high-fat diet (Kliba#2154, Provimi Kliba AG, Kaiseraugst, Switzerland) for 8 weeks to induce obesity. Thereafter, the mice were randomly assigned into two groups:
The duration of the supplementation was 9 weeks. During this period all mice received food and water ad libitum. At the end of the supplementation period, maximal running performance on a rodent treadmill (Technical & Scientific Equipment GmbH, Bad Homburg, Germany) was determined. Body composition was measured by quantitative magnetic resonance (Minispec MQ10, Bruker Optics GmbH, Faellanden, Switzerland) in conscious animals. At the end of the study, the animals were killed, blood was taken and the gastrocnemius-plantaris-soleus muscle group was excised and weighted.

[9] = compared to mice in the control group
[10] = mice, high-fat diet supplemented with 0.03% w/w, 9 weeks
[11] = mice, high-fat diet supplemented with 0.03% w/w, 9 weeks, quantitative magnetic resonance

Structure (SMILES) | mCD36 fold of induction compared to DMSO control [1] [fold] | mFABP3 fold of induction compared to DMSO control [2] [fold] | mCPT1b fold of induction compared to DMSO control [3] [fold] | mACO1 fold of induction compared to DMSO control [4] [fold] | mLPL fold of induction compared to DMSO control [5] [fold] | mUCP2 fold of induction compared to DMSO control [6] [fold] | Effect on CD36 expression (in words) [1] | Effect on FABP3 expression (in words) [2] | mUCP3 fold of induction compared to DMSO control [7] [fold] | Effect on UCP3 expression (in words) [7] | Effect on CPT1b expression (in words) [3] | Effect on LPL expression (in words) [5] | further results
COc1ccc(C=C2Oc3cc(O)ccc3C2=O)cc1 [Compound 7] | 2.95 | 2.16 | 1.12 | 1.03 | 1.06 | 2.33 | – | – | – | – | – | – | –
COc1ccc(C=CC(=O)c2cc(OC)ccc2OC)c(OC)c1 [Compound 3, 3-(2,4-dimethoxyphenyl)-1-(2,5-dimethoxyphenyl)-2-propen-1-one] | 10.16 | 4.76 | 3.64 | 1.54 | 3.5 | 4.25 | most remarkable effect | most remarkable effect | 4.73 | increased UCP3 expression | induced | increased moderately | –
COc1ccc(C(=O)C=Cc2ccc(OC)cc2OC)cc1 [Compound 8, 3-(2,4-dimethoxyphenyl)-1-(4-methoxyphenyl)-2-propen-1-one] | 9.49 | 3.36 | 1.29 | 1.15 | 1.88 | 4.68 | – | – | – | – | – | – | –
COc1ccc(C(=O)C=Cc2ccc(OC)c(OC)c2)cc1 [Compound 6, 3-(3,4-dimethoxyphenyl)-1-(4-methoxyphenyl)-2-propen-1-one] | 22.66 | 5.02 | 1.62 | 1.09 | 2.44 | 6.1 | most remarkable effect | most remarkable effect | 1.92 | increased UCP3 expression | – | increased moderately | –
O=C(C=Cc1ccc(O)c(O)c1)NC(=O)c1ccccc1O [Compound 1, N-[3-(3,4-dihydroxyphenyl)-1-oxo-2-propenyl]-2-hydroxybenzamide] | 2.93 | 1.35 | 1.33 | 1.98 | 1.11 | 2.46 | – | – | – | – | – | – | –
COc1ccc(C(=O)C=Cc2cccc(OC(=O)C=Cc3ccccc3)c2)cc1 [Compound 5, 3-phenyl-2-propenoic acid 3-[3-(4-methoxyphenyl)-3-oxo-1-propenyl]phenyl ester] | 1.91 | 1.88 | 4.19 | 1.03 | 1.84 | 2.33 | – | – | – | – | induced | – | –
COc1ccc(C(=O)/C=C/c2c(CCN(C)C(C)=O)cc3c(c2OC)OCO3)cc1 [Compound 4] | 15.56 | 6.29 | 5.08 | 1.74 | 3.31 | 7.55 | most remarkable effect | most remarkable effect | 5.95 | increased UCP3 expression | induced | increased moderately | –
COc1cc(C=CC(=O)NC(=O)c2ccccc2O)cc(OC)c1OC [Compound 2] | 3.2 | 1.63 | 1.05 | 1.81 | 1.91 | 3.27 | – | – | – | – | – | – | –
COc1ccc(-c2coc3cc(OC)ccc3c2=O)cc1 [4′,7-Dimethoxyisoflavone, 4′,7-dimethoxyisoflavone] | – | – | – | – | – | – | – | – | – | – | – | – | Increase of maximal running distance ([8]; compared to control group, treadmill): 6%; Effect on body weight (in words) [8, 9]: decreased; Effect on gastrocnemius-plantaris-soleus weight relative to body weight (in words) [8, 9]: increased; Effect on percentage of body fat mass (in words) [8, 9]: decreased; Effect on percentage of lean body mass (in words) [8, 9]: increased; Body weight [8, 10]: 30.5 g; Gastrocnemius-plantaris-soleus weight [8, 10]: 6.74 mg/g body weight; Body fat mass [8, 11]: 15.6 % of body weight; Lean body mass [8, 11]: 75.0 % of body weight; Maximal running distance ([8]; mice, high-fat diet supplemented with 0.03% w/w, 9 weeks, rodent treadmill): 2201 m
